Values quoted from earlier work, collected in patent US11992527B2, “Extracellular vesicles for vaccine delivery” (LONZA SALES AG, priority 2019, dated 2024).
pIC50: −log10 of the molar value.

Assays:
mouse LPA-1/CHO cells = details: in vitro, read-out: IC50, inhibition of LPA-1-induced chemotaxis
[1] = test system: human A2058 melanoma cells; details: in vitro, read-out: IC50, inhibition of LPA-1-induced chemotaxis
[2] = test system: LPA-induced histamine release; details: in mice
[3] = test system: BALF collagen and protein; macrophage and lymphocyte infiltration induced by bleomycin
[4] = in vivo
[5] = Phase 2 study (Palmer 2018)

pIC50 [1]	oral bioavailability [4]	Compound	pIC50 (mouse LPA-1/CHO cells)	ED50, block of LPA-induced histamine release [2] [mg/kg]	ED50, reduction of BALF collagen and protein ([3]; in lungs) [mg/kg]	macrophage and lymphocyte infiltration induced by bleomycin ([3]; in mice)	toxicity that led to early termination of the Phase 2 study [5]
6.64	orally bioavailable	Cc1noc(-c2ccc(-c3ccc(CC(=O)O)cc3)cc2)c1NC(=O)O[C@H](C)c1ccccc1 [AM095, 1,1′-Biphenyl]-4-acetic acid, 4′-[3-methyl-4-[[[(1R)-1-phenylethoxy]carbonyl]amino]-5-isoxazolyl[ ]-]	6.11	8.3	10	decrease both macrophage and lymphocyte infiltration	
		Cc1noc(-c2ccc(-c3ccc(C4(C(=O)O)CC4)cc3)cc2)c1NC(=O)O[C@H](C)c1ccccc1 [AM152, Cyclopropanecarboxylic acid, 1-[4′-[3-methyl-4-[[[(1R)-1-phenylethoxy]carbonyl]amino]-5-isoxazolyl][1,1′-biphenyl]-4-yl]-]					gall bladder toxicity and early signs of liver toxicity
